Assay results as given in the NIST ThermoML archive (doi:10.1016/j.fluid.2016.03.016).
± gives the expanded uncertainty stated by the source.

Experiment: mn = molality of the nth substance listed, in mol/kg
Conditions: 100 kPa, Liquid, Vibrating tube method

O [water] + O=C[C@H](O)[C@@H](O)[C@H](O)[C@H](O)CO
Conditions	mass density [kg/m3]
308.15 K, m2 = 0	994.063 ± 0.042

O=C[C@H](O)[C@@H](O)[C@H](O)CO [D-xylose] + O
mass density [kg/m3]
Conditions	m1 = 0.05973	m1 = 0.06763	m1 = 0.09347	m1 = 0.1376	m1 = 0.1501	m1 = 0.1698	m1 = 0.1873
288.15 K	1002.39 ± 1.2	1002.82 ± 1.2	1004.22 ± 1.2	1006.58 ± 1.2	1007.24 ± 1.2	1008.28 ± 1.2	1009.21 ± 1.2
298.15 K	1000.28 ± 1.2	1000.71 ± 1.2	1002.09 ± 1.2	1004.43 ± 1.2	1005.09 ± 1.2	1006.12 ± 1.2	1007.03 ± 1.2
308.15 K	997.274 ± 1.2	997.695 ± 1.2	999.067 ± 1.2	1001.39 ± 1.2	1002.04 ± 1.2	1003.07 ± 1.2	1003.97 ± 1.2
318.15 K	993.436 ± 1.2	993.851 ± 1.2	995.213 ± 1.2	997.518 ± 1.2	998.164 ± 1.2	999.183 ± 1.2	1000.08 ± 1.2

C[NH+]1CCCC1=O.O=C[O-] [N-methyl-2-oxopyrrolidinium formate] + O
mass density [kg/m3]
Conditions	288.15 K	298.15 K	308.15 K	318.15 K
m1 = 0.1	1000.87 ± 0.041	998.697 ± 0.042	995.571 ± 0.043	991.633 ± 0.045
m1 = 0.15	1001.64 ± 0.043	999.401 ± 0.043	996.217 ± 0.044	992.225 ± 0.046
m1 = 0.2	1002.42 ± 0.044	1000.1 ± 0.044	996.862 ± 0.045	992.816 ± 0.047
m1 = 0.25	1003.19 ± 0.046	1000.81 ± 0.045	997.508 ± 0.046	993.408 ± 0.048

O=C[C@H](O)[C@@H](O)[C@H](O)[C@H](O)CO [D-glucose] + O
mass density [kg/m3]
Conditions	m1 = 0.04761	m1 = 0.08797	m1 = 0.09893	m1 = 0.1276	m1 = 0.1555	m1 = 0.1767	m1 = 0.2008
288.15 K	1002.39 ± 0.041	1005.11 ± 0.043	1005.85 ± 0.044	–	1009.58 ± 0.047	1010.96 ± 0.048	1012.51 ± 0.05
298.15 K	1000.27 ± 0.04	1002.97 ± 0.043	1003.7 ± 0.043	1005.58 ± 0.045	–	–	1010.31 ± 0.049
308.15 K	997.256 ± 0.042	999.92 ± 0.042	1000.64 ± 0.042	1002.5 ± 0.044	1004.29 ± 0.045	1005.64 ± 0.047	–
318.15 K	993.41 ± 0.043	996.056 ± 0.043	996.767 ± 0.043	998.624 ± 0.043	1000.4 ± 0.044	1001.75 ± 0.045	1003.26 ± 0.046

CCC(=O)[O-].C[NH+]1CCCC1=O [N-methyl-2-oxopyrrolidinium propionate] + O
mass density [kg/m3]
Conditions	288.15 K	298.15 K	308.15 K	318.15 K
m1 = 0.1	1000.28 ± 0.042	998.097 ± 0.042	994.976 ± 0.044	990.978 ± 0.045
m1 = 0.15	1000.81 ± 0.043	998.566 ± 0.044	995.384 ± 0.045	991.337 ± 0.047
m1 = 0.2	1001.35 ± 0.045	999.034 ± 0.045	995.792 ± 0.046	991.696 ± 0.048
m1 = 0.25	1001.89 ± 0.047	999.503 ± 0.046	996.2 ± 0.048	992.055 ± 0.049
